From patent US20210009950A1, “ANGIOGENESIS-INDUCING METHOD USING NEURAL STEM CELL” (MEDINNO INC., priority 2018, published 2021)

Tests used:
MCP-1 = type: cell-based, human
Groα = type: cell-based, human

[Cl-].[Cl-].[Co+2] [CoCl2]
amount of MCP-1 at 24 hours after CoCl2 treatment (MCP-1): increased in proportion to the concentration
amount of MCP-1 at CoCl2 300 μM or more compared to 100 and 200 μM (MCP-1): reduced
expression level of MCP-1, another 24 hours after medium replaced with DMEM/F12 (MCP-1): highest in the case of treatment of 100 μM CoCl2
expression of MCP-1 (MCP-1): increased
amount of Groα at 24 hours after CoCl2 treatment (Groα): increased in a concentration-dependent manner
amount of Groα at CoCl2 200 μM or more compared to 100 μM (Groα): reduced
amount of Groα, another 24 hours after medium replaced with DMEM/F12 (Groα): highest when 100 μM CoCl2 was treated
expression of Gro (Groα): increased
CoCl2 concentration giving highest Groα at 24 hours after treatment (Groα; 24 hours): 500 µM
